Experimental data reported in article PMC8205226, “HIV-1 Integrase Inhibitors with Modifications That Affect Their Potencies against Drug Resistant Integrase Mutants” (ACS Infectious Diseases, 2021).
Like-named read-outs stand apart in the source and are kept apart here.

Columns and labels:
WT HIV-1 [1] = assay: single-round infectivity assay, WT HIV-1 IN vector; format: cell-based; conditions: Human immunodeficiency virus 1, read-out: EC50 values WT, vector carrying WT HIV-1 IN, single round infection, n = 4; new compounds
Experimental: (§1) Figure 2 Antiviral activities of the new compounds against RAL-resistant mutants. The EC50 values were determined using a vector that carries WT HIV-1 IN and the RAL-resistant mutants in a single round infection assay. […] Error bars represent the standard deviations of independent experiments, n = 4, performed in triplicate. The graph has a maximum value of 550 nM.
(§2) WT and mutant HIV-1 viral vectors were used in single-round infectivity assays to determine the antiviral potencies (EC50 values) of the compounds and the effects of the mutants on the EC50 values as previously described.[30],[54] Single round infectivity measurements were determined as done previously.[38]
(§3) The vector pNLNgoMIVR-ΔENV.LUC has been described previously.[26] To produce the new IN mutants used in this study, the IN open reading frame was removed from pNLNgoMIVR-ΔENV.LUC by digestion with KpnI and SalI, and the resulting fragment was inserted between the KpnI and SalI sites of pBluescript KS+. Using that construct as the wild-type template, we prepared the following HIV-1 IN mutants using the QuikChange II XL site directed mutagenesis kit (Agilent Technologies, Santa Clara, CA) protocol: N117A, N117H, P142A, P142H, P142S, Y143C, Y143H, S230R, R231G, and R231K. The following sense oligonucleotides were used with matching cognate antisense oligonucleotides (not shown) (Integrated DNA Technologies, Coralville, IA) in the mutagenesis: N117A, 5′-[…]-3′; N117H, 5′-[…]-3′; P142A, 5′-[…]-3′; P142H, 5′-[…]-3′; P142S, 5′-[…]-3′; Y143C, 5′- […]-3′; Y143H, 5′-[…]-3′; S230R, 5′- […]-3′; R231G, 5′-[…]-3′; R231K, 5′-[…]-3′.

HIV-1 IN mutant Y143R [2] = assay: single-round infectivity assay, Y143R IN mutant; format: cell-based; conditions: for FC Y143R: fold change in EC50, IN mutant versus WT HIV-1
Experimental: as §1, §2, §3

HIV-1 IN mutant N155H [3] = assay: single-round infectivity assay, N155H IN mutant; format: cell-based; conditions: for FC N155H: fold change in EC50, IN mutant versus WT HIV-1
Experimental: as §1, §2, §3

[4] = test system: HIV-1 IN double mutant G140S/Q148H; assay: single-round infectivity assay, G140S/Q148H IN double mutant; format: cell-based; conditions: for FC G140S/Q148H: fold change in EC50, IN mutant versus WT HIV-1
Experimental: as §1, §2, §3

HIV-1 IN mutant N117A = assay: single-round infectivity assay, N117A IN mutant; format: cell-based; conditions: for EC50: Human immunodeficiency virus 1, read-out: EC50 values N117A; for FC N117A: fold change in EC50, IN mutant versus WT HIV-1
Experimental: (§4) The EC50 values were determined using a vector that carries the IN mutant in a single round infection assay. […] Error bars represent the standard deviations of independent experiments, n = 4, performed in triplicate.
as §2, §3

HIV-1 IN mutant N117H = assay: single-round infectivity assay, N117H IN mutant; format: cell-based; conditions: for EC50: Human immunodeficiency virus 1, read-out: EC50 values N117H; for FC N117H: fold change in EC50, IN mutant versus WT HIV-1
Experimental: as §4, §2, §3

HIV-1 IN mutant G118R [5] = assay: single-round infectivity assay, G118R IN mutant; format: cell-based
Experimental: as §4, §2, §3

HIV-1 IN mutant S119R = assay: single-round infectivity assay, S119R IN mutant; format: cell-based; conditions: for EC50: Human immunodeficiency virus 1, read-out: EC50 values S119R; for FC S119R: fold change in EC50, IN mutant versus WT HIV-1
Experimental: as §4, §2, §3

HIV-1 IN mutant Y143C = assay: single-round infectivity assay, Y143C IN mutant; format: cell-based
Experimental: as §4, with “Figure 4 Mutations in the β5-α3 loop affect the antiviral potencies of the new compounds. The” for “The”
as §2, §3

HIV-1 IN mutant Y143H = assay: single-round infectivity assay, Y143H IN mutant; format: cell-based
Experimental: as §4, with “Figure 4 Mutations in the β5-α3 loop affect the antiviral potencies of the new compounds. The” for “The”
as §2, §3

HIV-1 IN mutant P142A = assay: single-round infectivity assay, P142A IN mutant; format: cell-based; conditions: for EC50: Human immunodeficiency virus 1, read-out: EC50 values P142A
Experimental: as §4, with “Figure 4 Mutations in the β5-α3 loop affect the antiviral potencies of the new compounds. The” for “The”
as §2, §3

HIV-1 IN mutant P142H = assay: single-round infectivity assay, P142H IN mutant; format: cell-based; conditions: for EC50: Human immunodeficiency virus 1, read-out: EC50 values P142H
Experimental: as §4
Single round infectivity measurements were determined as done previously.[38]
as §3

HIV-1 IN mutant P142S = assay: single-round infectivity assay, P142S IN mutant; format: cell-based; conditions: for EC50: Human immunodeficiency virus 1, read-out: EC50 values P142S
Experimental: as §4, with “Figure 4 Mutations in the β5-α3 loop affect the antiviral potencies of the new compounds. The” for “The”
as §2, §3

HIV-1 IN mutant S230R = assay: single-round infectivity assay, S230R IN mutant; format: cell-based; conditions: for EC50: Human immunodeficiency virus 1, read-out: EC50 values S230R; for FC S230R: fold change in EC50, IN mutant versus WT HIV-1
Experimental: as §4, with “Figure 5 Antiviral potencies of the new compounds against IN with mutations in the […]. The” for “The”
as §2, §3

HIV-1 IN mutant R231G = assay: single-round infectivity assay, R231G IN mutant; format: cell-based; conditions: for EC50: Human immunodeficiency virus 1, read-out: EC50 values R231G; for FC R231G: fold change in EC50, IN mutant versus WT HIV-1
Experimental: as §4, with “Figure 5 Antiviral potencies of the new compounds against IN with mutations in the […]. The” for “The”
as §2, §3

HIV-1 IN mutant R231K = assay: single-round infectivity assay, R231K IN mutant; format: cell-based
Experimental: as §4, with “Figure 5 Antiviral potencies of the new compounds against IN with mutations in the […]. The” for “The”
as §2, §3

WT HIV-1 [6] = conditions: vector carrying WT HIV-1 IN, single round infection; previously reported; cited from earlier work
HIV-1 IN mutant Y143R [7] = conditions: single round infection; previously reported; cited from earlier work
HIV-1 IN mutant N155H [8] = conditions: single round infection; previously reported; cited from earlier work
[9] = test system: HIV-1 IN double mutant G140S/Q148H; conditions: single round infection; previously reported; cited from earlier work
HIV-1 IN mutant G118R [10] = conditions: single round infection; previously shown; cited from earlier work
[11] = fold change in EC50, IN mutant versus WT HIV-1
[12] = Human immunodeficiency virus 1, read-out: EC50 values Y143H, single round infection, n = 4
[13] = read-out: EC50 values Y143H, single round infection, n = 4
[14] = Human immunodeficiency virus 1, read-out: EC50 values R231K, single round infection, n = 4

## O=C(NCc1ccc(F)cc1F)c1c(O)c2cc(CCS(=O)(=O)c3ccccc3)cnc2n(O)c1=O [6w, N-(2,4-Difluorobenzyl)-1,4-dihydroxy-2-oxo-6-(2-(phenylsulfonyl)ethyl)-1,2-dihydro-1,8-naphthyridine-3-carboxamide]
WT HIV-1 [1]
  EC50: 10.6 ± 1 nM
HIV-1 IN mutant Y143R [2]; EC50 compound / EC50 DTG
  ratio of the EC50s (our compound relative to DTG) against Y143R: 1.7
HIV-1 IN mutant Y143R [2]; Human immunodeficiency virus 1, read-out: EC50 values Y143R
  EC50: 7.2 ± 1.7 nM
HIV-1 IN mutant Y143R [2]
  FC Y143R: 0.7
HIV-1 IN mutant N155H [3]; EC50 compound / EC50 DTG
  ratio of the EC50s (our compound relative to DTG) against N155H: 3.9
HIV-1 IN mutant N155H [3]; Human immunodeficiency virus 1, read-out: EC50 values N155H
  EC50: 14.1 ± 4.3 nM
HIV-1 IN mutant N155H [3]
  FC N155H: 1.3
[4]; EC50 6w / EC50 4f
  FC, difference in potencies 6w compared to 4f against G140S/Q148H: 18.8
[4]; EC50 compound / EC50 DTG
  ratio of the EC50s (our compound relative to DTG) against G140S/Q148H: 16.8
[4]; Human immunodeficiency virus 1, read-out: EC50 values G140S/Q148H
  EC50: 97.5 ± 16.8 nM
[4]
  FC G140S/Q148H: 9.2
HIV-1 IN mutant N117A; EC50 compound / EC50 DTG
  ratio of the EC50s (our compound relative to DTG) against N117A: 12.8
HIV-1 IN mutant N117A
  EC50: 6.4 nM
  FC N117A: 0.6
HIV-1 IN mutant N117H; EC50 compound / EC50 DTG
  ratio of the EC50s (our compound relative to DTG) against N117H: 7.9
HIV-1 IN mutant N117H
  EC50: 19 ± 1.4 nM
  FC N117H: 1.8
HIV-1 IN mutant G118R [5]; EC50 compound / EC50 DTG
  ratio of the EC50s (our compound relative to DTG) against G118R: 16.8
HIV-1 IN mutant G118R [5]; Human immunodeficiency virus 1, read-out: EC50 values G118R
  EC50: 219 ± 29.8 nM
HIV-1 IN mutant G118R [5]; [11]
  FC G118R: 20.7
HIV-1 IN mutant S119R; EC50 compound / EC50 DTG
  ratio of the EC50s (our compound relative to DTG) against S119R: 16.6
HIV-1 IN mutant S119R
  EC50: 38.2 ± 6 nM
  FC S119R: 3.6
HIV-1 IN mutant Y143C; EC50 compound / EC50 DTG
  ratio of the EC50s (our compound relative to DTG) against Y143C: 13.4
HIV-1 IN mutant Y143C; Human immunodeficiency virus 1, read-out: EC50 values Y143C, single round infection, n = 4
  EC50: 18.8 ± 1.4 nM
HIV-1 IN mutant Y143C; read-out: EC50 values Y143C, single round infection, n = 4
  EC50: > 18 nM
HIV-1 IN mutant Y143H; EC50 compound / EC50 DTG
  ratio of the EC50s (our compound relative to DTG) against Y143H: 11.4
HIV-1 IN mutant Y143H; [12]
  EC50: 25.1 ± 3.6 nM
HIV-1 IN mutant Y143H; [13]
  EC50: > 18 nM
HIV-1 IN mutant P142A; EC50 compound / EC50 DTG
  ratio of the EC50s (our compound relative to DTG) against P142A: 9.1
HIV-1 IN mutant P142A
  EC50: 22.8 ± 2.5 nM
HIV-1 IN mutant P142H; EC50 compound / EC50 DTG
  ratio of the EC50s (our compound relative to DTG) against P142H: 9.2
HIV-1 IN mutant P142H
  EC50: 25.7 ± 2 nM
HIV-1 IN mutant P142S; EC50 compound / EC50 DTG
  ratio of the EC50s (our compound relative to DTG) against P142S: 14.2
HIV-1 IN mutant P142S
  EC50: 31.2 ± 3.7 nM
HIV-1 IN mutant S230R; EC50 compound / EC50 DTG
  ratio of the EC50s (our compound relative to DTG) against S230R: 2.4
HIV-1 IN mutant S230R
  EC50: 11.2 ± 1.6 nM
  FC S230R: 1.1
HIV-1 IN mutant R231G; EC50 compound / EC50 DTG
  ratio of the EC50s (our compound relative to DTG) against R231G: 10.9
HIV-1 IN mutant R231G
  EC50: 15.2 ± 1.4 nM
  FC R231G: 1.4
HIV-1 IN mutant R231K; EC50 compound / EC50 DTG
  ratio of the EC50s (our compound relative to DTG) against R231K: 6.7
HIV-1 IN mutant R231K; [14]
  EC50: 28.2 ± 3.9 nM
HIV-1 IN mutant R231K; [11]
  FC R231K: 2.7

## C[C@@H]1CCO[C@H]2Cn3cc(C(=O)NCc4ccc(F)cc4F)c(=O)c(O)c3C(=O)N12 [DTG, dolutegravir, reference compound]
HIV-1 IN mutant Y143R [2]
  FC Y143R: 2.7
HIV-1 IN mutant N155H [3]
  FC N155H: 2.3
[4]
  FC G140S/Q148H: 3.6
HIV-1 IN mutant N117A
  EC50: 0.5 nM
  FC N117A: 0.3
HIV-1 IN mutant N117H
  EC50: 2.4 nM
  FC N117H: 1.5
HIV-1 IN mutant S119R
  EC50: 2.3 ± 0.6 nM
  FC S119R: 1.4
HIV-1 IN mutant Y143C; [11]
  FC Y143C: 0.9
HIV-1 IN mutant Y143H; [12]
  EC50: 2.2 ± 0.2 nM
HIV-1 IN mutant Y143H; [11]
  FC Y143H: 1.4
HIV-1 IN mutant Y143H; [13]
  EC50: < 3 nM
HIV-1 IN mutant P142A
  EC50: 2.5 ± 0.5 nM
HIV-1 IN mutant P142A; [11]
  FC P142A: 1.6
HIV-1 IN mutant P142H
  EC50: 2.8 ± 0.7 nM
HIV-1 IN mutant P142S
  EC50: 2.2 ± 0.1 nM
HIV-1 IN mutant P142S; [11]
  FC P142S: 1.4
HIV-1 IN mutant S230R
  EC50: 4.6 ± 0.7 nM
  FC S230R: 2.9
HIV-1 IN mutant R231G
  EC50: 1.4 ± 0.2 nM
  FC R231G: 0.9
HIV-1 IN mutant R231K; [14]
  EC50: 4.2 ± 0.2 nM
HIV-1 IN mutant R231K; read-out: EC50 values R231K, single round infection, n = 4
  EC50: < 5 nM
WT HIV-1 [6]
  EC50: 1.6 ± 0.9 nM
HIV-1 IN mutant Y143R [7]
  EC50: 4.3 ± 1.2 nM
HIV-1 IN mutant N155H [8]
  EC50: 3.6 ± 1.3 nM
[9]
  EC50: 5.8 ± 0.5 nM
HIV-1 IN mutant G118R [10]
  EC50: 13 ± 5 nM
